Results reported in US4963581A, “Naphthopyran derivatives and use thereof” (Takeda Chemical Industries, Ltd., priority 1988, dated 1990).

How the values were obtained:
[1] = system: various enzymes involved in the biosynthesis of steroid hormones; conditions: background statement in words; cited from earlier work
[2] = biological target: T1, Human placental aromatase (Homo sapiens, UniProt P11511); assay: In vitro human placental aromatase inhibiting activity; format: biochemical; conditions: substrate androstenedione 4 μM, 37° C., 1 hour
T1 construct: the pellet thus obtained was used as a microsome fraction; from tissue; host or cells: human placenta, microsome fraction
T1 sequence (P11511 1-503): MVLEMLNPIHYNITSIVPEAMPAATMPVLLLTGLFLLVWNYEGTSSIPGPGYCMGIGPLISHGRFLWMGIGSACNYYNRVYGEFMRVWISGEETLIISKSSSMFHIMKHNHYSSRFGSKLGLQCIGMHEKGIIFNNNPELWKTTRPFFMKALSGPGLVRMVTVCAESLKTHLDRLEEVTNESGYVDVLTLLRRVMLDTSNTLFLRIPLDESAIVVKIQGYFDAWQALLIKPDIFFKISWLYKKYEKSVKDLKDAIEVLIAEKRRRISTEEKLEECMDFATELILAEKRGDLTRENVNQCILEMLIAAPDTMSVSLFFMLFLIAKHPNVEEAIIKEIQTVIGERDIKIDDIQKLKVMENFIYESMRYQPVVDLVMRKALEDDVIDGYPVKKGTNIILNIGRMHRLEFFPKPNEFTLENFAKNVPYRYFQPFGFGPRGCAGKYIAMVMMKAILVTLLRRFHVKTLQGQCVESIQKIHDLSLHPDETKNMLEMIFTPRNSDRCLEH
Protocol: Preparation of human placental microsome:
The method of F. A. Thompson et al. [Journal of Biological Chemistry, 249, 5364 (1974)]was partly modified. Thus, a placenta was washed with cooled 0.15 M KCl and, after removal of adhering membranes and great blood vessels, minced to sufficiently small pieces by means of scissors. To the minced tissue was added cold 0.02 M phosphate buffer (pH 7.4) containing 0.25 M sucrose in an amount of 1 ml per 1 g of tissue, the mixture was homogenized with a Polytron homogenizer (30 seconds, three times, in ice) and then centrifuged at 800×g for 10 minutes, the supernatant was subjected to centrifugation at 20,000×g for 30 minutes, followed by further centrifugation at 148,000×g for 45 minutes, and the pellet thus obtained was used as a microsome fraction. The microsome obtained was suspended in the same phosphate buffer as mentioned above in a concentration corresponding to 10 g of wet placenta per ml. The suspension was stored at -80° C. and, just prior to use, diluted 5 to 6 times.
Aromatase activity measurement and inhibitory activity:
The method of F. A. Thompson et al. (vide supra) was partly modified as follows:
A reaction solution ([…]) containing 4 μM 4-androstene-3,17-dione, 140,000 dpm, 1,2[^3 H]-androstenedione, 550 μM NADPH, 20 μl of the above microsome and 5 μl of buffer or 5 μl of an inhibitor-containing solution was incubated at 37° C. for 1 hour. In this measurement system, aromatization of androstenedione gives [^3 H]--H2 O. Therefore, this reaction mixture was extracted with 0.5 ml of chloroform for separation, the aqueous layer obtained was treated with 0.25 ml of 5% active carbon for removal of free steriods and then subjected to low speed centrifugation. A scintillator (3 ml) was added to 0.2 ml of the supernatant, and the radioactivity was measured by means of a liquid scintillation counter. The percent inhibition (%) was determined by comparing the result thus obtained with the result for a control sample as obtained without adding any inhibitor. The activity was expressed in terms of IC50 (μg/ml), namely the inhibitor concentration required for 50% inhibition of the enzyme activity at the substrate (androstenedione) concentration of 4 μM.

estrogen synthesis [3] = assay: Estrogen synthesis inhibition in rats (PMSG-stimulated); format: in vivo, young SD rats; conditions: 4 days, Mean ± SD
Protocol: Groups of five young SD rats ([…], 19 days old) were used. Test groups were administered subcutaneously with the test compounds suspended in 0.2% gum arabic-containing physiological saline in a dose of 25 mg/kg or 50 mg/kg at 24-hour intervals for consecutive 4 days. Non-test groups (control groups […]) were administered with 0.2 ml of 0.2% gum arabic-containing physiological saline. On the third day after initiation of the test, a single dose of pregnant mare serum gonadotropin (PMSG) was administered subcutaneously in a dose of 10 U/rat to the test groups and to the control group 2, following the administration of the test compounds. […] The plasma samples thus obtained were subjected to plasma estradiol-17B level determination by radioimmunoassay. The uterus and ovaries were excised from each rat and, after removal of superfluous connective tissues, weighed. The results thus obtained are shown in Table 2.4-Hydroxyandrostenedione (4-OHA) was used as a reference compound for the pharmacological effect evaluation.
*P < 0.05, **P < 0.02, ***P < 0.01, ****<0.001 against PMSG group

estrogen synthesis [4] = assay: as above; format: in vivo, young SD rats; conditions: Test I, 100 mg/kg/day s.c., 4 days, Mean ± SD
[5] = Test I, 25 mg/kg/day s.c., PMSG control 568.6 ± 69.7
[6] = Test I, 50 mg/kg/day s.c., PMSG control 568.6 ± 69.7
[7] = Test II, 25 mg/kg/day s.c., PMSG control 240.0 ± 34.9
[8] = Test II, 50 mg/kg/day s.c., PMSG control 240.0 ± 34.9

## CCC1(c2ccc(N)cc2)CCC(=O)NC1=O (centres unmarked) [Aminoglutethimide]
[1]
  inhibition of various enzymes involved in the biosynthesis of steroid hormones: inhibits various enzymes involved in the biosynthesis of steroid hormones

## COC1=C(C2=C(OC)C(=O)c3cc4c(c(O)c3C2=O)C(=O)OC(C)C4)C(=O)c2c(cc3c(c2O)C(=O)OC(C)C3)C1=O (centres unmarked) [Compound 1, xanthomegnin]
[2]
  IC50: 8.18 µM
Estrogen synthesis [3]; Test I, 25 mg/kg/day s.c.
  Body weight gain: 22.4 ± 3.1 g
  Tissue weight, Ovaries: 23.7 ± 3.4 mg
  Tissue weight, Uterus: 88.9 ± 9.0 mg
Estrogen synthesis [3]; [5]
  Plasma estradiol-17β level: 204.7 ± 67.0 pg/mL
Estrogen synthesis [3]; Test I, 50 mg/kg/day s.c.
  Body weight gain: 21.4 ± 2.7 g
  Tissue weight, Ovaries: 25.5 ± 5.5 mg
  Tissue weight, Uterus: 91.9 ± 14.4 mg
Estrogen synthesis [3]; [6]
  Plasma estradiol-17β level: 250.9 ± 161.1 pg/mL

## COC1=C(C2=C(O)C(=O)c3cc4c(c(O)c3C2=O)C(=O)OC(C)C4)C(=O)c2c(cc3c(c2O)C(=O)OC(C)C3)C1=O (centres unmarked) [Compound 2, monodemethylxanthomegnin]
[2]
  IC50: 24.1 µM
Estrogen synthesis [3]; Test III, 25 mg/kg/day s.c.
  Tissue weight, Ovaries: 29.4 ± 7.5 mg
  Tissue weight, Uterus: 115.7 ± 14.0 mg
Estrogen synthesis [3]; Test III, 25 mg/kg/day s.c., PMSG control 327.9 ± 126.6
  Plasma estradiol-17β level: 189.5 ± 123.4 pg/mL
Estrogen synthesis [3]; Test III, 50 mg/kg/day s.c.
  Tissue weight, Ovaries: 29.0 ± 2.5 mg
  Tissue weight, Uterus: 106.3 ± 14.0 mg
Estrogen synthesis [3]; Test III, 50 mg/kg/day s.c., PMSG control 327.9 ± 126.6
  Plasma estradiol-17β level: 195.1 ± 79.3 pg/mL

## CC1Cc2cc3c(c(O)c2C(=O)O1)C(=O)C(C1=C(O)C(=O)c2cc4c(c(O)c2C1=O)C(=O)OC(C)C4)=C(O)C3=O (centres unmarked) [Compound 3, luteosporin]
[2]
  IC50: 134 µM
Estrogen synthesis [3]; Test II, 25 mg/kg/day s.c.
  Tissue weight, Ovaries: 21.3 ± 4.4 mg
  Tissue weight, Uterus: 93.6 ± 22.4 mg
Estrogen synthesis [3]; [7]
  Plasma estradiol-17β level: 124.1 ± 53.3 pg/mL
Estrogen synthesis [3]; Test II, 50 mg/kg/day s.c.
  Tissue weight, Ovaries: 22.6 ± 5.4 mg
  Tissue weight, Uterus: 115.4 ± 30.4 mg
Estrogen synthesis [3]; [8]
  Plasma estradiol-17β level: 71.1 ± 23.4 pg/mL

## CC1Cc2cc3c(c(O)c2C(=O)O1)C(=O)C(C1=C(O)C(=O)c2cc4c(c(O)c2C1=O)C(=O)OC(C)C4)=C(N)C3=O (centres unmarked) [Compound 4, plastatin]
[2]
  IC50: 30.2 µM
Estrogen synthesis [3]; Test II, 25 mg/kg/day s.c.
  Tissue weight, Ovaries: 20.8 ± 3.9 mg
  Tissue weight, Uterus: 97.4 ± 17.8 mg
Estrogen synthesis [3]; [7]
  Plasma estradiol-17β level: 156.0 ± 47.8 pg/mL
Estrogen synthesis [3]; Test II, 50 mg/kg/day s.c.
  Tissue weight, Ovaries: 26.8 ± 4.8 mg
  Tissue weight, Uterus: 86.6 ± 9.6 mg
Estrogen synthesis [3]; [8]
  Plasma estradiol-17β level: 190.3 ± 19.9 pg/mL

## C[C@]12CCC(=O)C(O)=C1CC[C@@H]1[C@@H]2CC[C@]2(C)C(=O)CC[C@@H]12 [Compound 4-OHA, 4-Hydroxyandrostenedione, reference compound]
Estrogen synthesis [4]
  Body weight gain: 25.0 ± 1.6 g
Estrogen synthesis [3]; Test I, 100 mg/kg/day s.c.
  Tissue weight, Ovaries: 24.3 ± 4.5 mg
  Tissue weight, Uterus: 60.6 ± 9.0 mg
Estrogen synthesis [3]; Test I, 100 mg/kg/day s.c., PMSG control 568.6 ± 69.7
  Plasma estradiol-17β level: 115.5 ± 47.4 pg/mL
Estrogen synthesis [3]; Test II, 100 mg/kg/day s.c.
  Body weight gain: 22.8 ± 1.5 g
  Tissue weight, Ovaries: 22.3 ± 3.3 mg
  Tissue weight, Uterus: 61.5 ± 8.2 mg
Estrogen synthesis [3]; Test II, 100 mg/kg/day s.c., PMSG control 240.0 ± 34.9
  Plasma estradiol-17β level: 36.1 ± 33.0 pg/mL
Estrogen synthesis [3]; Test III, 100 mg/kg/day s.c.
  Body weight gain: 24.8 ± 0.8 g
  Tissue weight, Ovaries: 26.3 ± 1.7 mg
  Tissue weight, Uterus: 71.9 ± 8.6 mg
Estrogen synthesis [3]; Test III, 100 mg/kg/day s.c., PMSG control 327.9 ± 126.6
  Plasma estradiol-17β level: 52.3 ± 21.7 pg/mL

## COC1=C(c2c(OC)cc3cc4c(c(O)c3c2O)C(=O)OC(C)C4)C(=O)c2c(cc3c(c2O)C(=O)OC(C)C3)C1=O (centres unmarked) [Compound 5, viomellein]
[2]
  IC50: 130 µM
Estrogen synthesis [3]; Test II, 25 mg/kg/day s.c.
  Body weight gain: 22.8 ± 1.8 g
  Tissue weight, Ovaries: 25.3 ± 4.9 mg
  Tissue weight, Uterus: 104.6 ± 16.6 mg
Estrogen synthesis [3]; [7]
  Plasma estradiol-17β level: 60.5 ± 51.1 pg/mL
Estrogen synthesis [3]; Test II, 50 mg/kg/day s.c.
  Body weight gain: 22.0 ± 1.2 g
  Tissue weight, Ovaries: 21.0 ± 2.5 mg
  Tissue weight, Uterus: 97.7 ± 16.0 mg
Estrogen synthesis [3]; [8]
  Plasma estradiol-17β level: 63.8 ± 24.3 pg/mL

## CC1Cc2cc3c(c(O)c2C(=O)O1)C(=O)C(C1=C(N)C(=O)c2cc4c(c(O)c2C1=O)C(=O)OC(C)C4)=C(N)C3=O (centres unmarked) [Compound 6]
[2]
  IC50: 7.16 µM
Estrogen synthesis [3]; Test I, 25 mg/kg/day s.c.
  Tissue weight, Ovaries: 32.2 ± 7.0 mg
  Tissue weight, Uterus: 102.2 ± 15.5 mg
Estrogen synthesis [3]; [5]
  Plasma estradiol-17β level: 353.2 ± 48.4 pg/mL
Estrogen synthesis [3]; Test I, 50 mg/kg/day s.c.
  Tissue weight, Ovaries: 32.0 ± 2.9 mg
  Tissue weight, Uterus: 103.1 ± 11.6 mg
Estrogen synthesis [3]; [6]
  Plasma estradiol-17β level: 326.0 ± 115.1 pg/mL
